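Each compound was tested at five concentrations against cells in 96-well plates for 48 hours. GI50 is the concentration that inhibits growth by half. TGI: concentration producing complete growth inhibition.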
Key:
Experiment in all cases: NCI-60 cell line screen, 48 h
[1] = system: SR leukemia
[2] = system: EKVX NSCLC
[3] = system: SF-268 CNS
[4] = system: MDA-MB-435
[5] = system: OVCAR-4 ovarian
[6] = system: MOLT-4 leukemia
[7] = system: SK-OV-3 ovarian
[8] = system: NCI-H460 lung
[9] = system: M14 melanoma
[10] = system: COLO 205 colon
[11] = system: HOP-92 NSCLC
[12] = system: HCT-15 colon
[13] = system: KM12 colon
[14] = system: K-562 leukemia
[15] = system: NCI-H226 lung
[16] = system: HCC-2998 colon
[17] = system: A498 renal
[18] = system: SF-295 CNS
[19] = system: SK-MEL-28 melanoma
[20] = system: U251 CNS
[21] = system: A549 NSCLC
[22] = system: DU-145 prostate
[23] = system: NCI-H23 lung
[24] = system: HT29 colon
[25] = system: T-47D breast
[26] = system: OVCAR-5 ovarian
[27] = system: CAKI-1 renal
[28] = system: SNB-75 CNS
[29] = system: ACHN renal
[30] = system: HOP-62 NSCLC
[31] = system: CCRF-CEM leukemia
[32] = system: MALME-3M melanoma
[33] = system: SK-MEL-2 melanoma
[34] = system: MCF7 breast
[35] = system: UACC-257 melanoma
[36] = system: SW-620 colon
[37] = system: 786-0 renal
[38] = system: TK-10 renal
[39] = system: MDA-MB-231 breast
[40] = system: IGROV1 ovarian
[41] = system: HL-60(TB) leukemia
[42] = system: PC-3 prostate
[43] = system: UO-31 renal
[44] = system: UACC-62 melanoma
[45] = system: HCT-116 colon
[46] = system: HS 578T breast
[47] = system: SN12C renal
[48] = system: LOX IMVI melanoma
[49] = system: BT-549 breast
[50] = system: OVCAR-8 ovarian
[51] = system: NCI-H522 lung
[52] = system: SF-539 CNS
[53] = system: SNB-19 CNS
[54] = system: RXF 393 renal
[55] = system: NCI/ADR-RES ovarian
[56] = system: SK-MEL-5 melanoma
[57] = system: RPMI-8226 leukemia

CC[C@]12CC(C(=O)OC)=C3Nc4ccccc4[C@@]34CCN(C14)[C@@H]1c3cc4c(cc3O[C@@H]1[C@H]2O)NC1=C(C(=O)OC)C[C@@]2(CC)C3N(CC[C@@]143)C[C@H]1O[C@H]12 (some centres not stated)
GI50 [1]: 183 nM
TGI [1]: > 50 µM
GI50 [2]: 600 nM
TGI [2]: > 50 µM
GI50 [3]: 1270 nM
TGI [3]: > 50 µM
GI50 [4]: 370 nM
TGI [4]: 8.77 µM
GI50 [5]: 548 nM
TGI [5]: > 50 µM
GI50 [6]: 912 nM
TGI [6]: > 50 µM
GI50 [7]: 296 nM
GI50 [8]: 812 nM
TGI [8]: > 30.7 µM
GI50 [9]: 423 nM
TGI [9]: > 20.6 µM
GI50 [10]: 278 nM
TGI [10]: 1010 nM
GI50 [11]: 134 nM
TGI [11]: 2070 nM
GI50 [12]: 160 nM
TGI [12]: 6.4 µM
GI50 [13]: 636 nM
TGI [13]: > 50 µM
GI50 [14]: 220 nM
TGI [14]: > 50 µM
GI50 [15]: 509 nM
TGI [15]: > 11.3 µM
GI50 [16]: 492 nM
TGI [16]: 1700 nM
GI50 [17]: 193 nM
TGI [17]: 1160 nM
GI50 [18]: 317 nM
TGI [18]: > 50 µM
GI50 [19]: 974 nM
TGI [19]: > 50 µM
GI50 [20]: 738 nM
TGI [20]: 4.72 µM
GI50 [21]: 510 nM
TGI [21]: > 44.4 µM
GI50 [22]: 1850 nM
TGI [22]: > 50 µM
GI50 [23]: 632 nM
TGI [23]: > 36.2 µM
GI50 [24]: 226 nM
TGI [24]: > 25.4 µM
GI50 [25]: 616 nM
TGI [25]: > 50 µM
GI50 [26]: 614 nM
TGI [26]: > 50 µM
GI50 [27]: 122 nM
TGI [27]: > 20.4 µM
GI50 [28]: 97.2 nM
GI50 [29]: 320 nM
TGI [29]: 5.65 µM
GI50 [30]: 201 nM
TGI [30]: > 50 µM
GI50 [31]: 590 nM
TGI [31]: > 50 µM
GI50 [32]: 504 nM
TGI [32]: 21 µM
GI50 [33]: 537 nM
TGI [33]: 5.04 µM
GI50 [34]: 109 nM
TGI [34]: > 50 µM
GI50 [35]: 363 nM
TGI [35]: 10.2 µM
GI50 [36]: 840 nM
TGI [36]: > 20.7 µM
GI50 [37]: 274 nM
TGI [37]: > 50 µM
GI50 [38]: 130 nM
TGI [38]: 3.06 µM
GI50 [39]: 311 nM
TGI [39]: > 50 µM
GI50 [40]: 349 nM
TGI [40]: > 50 µM
GI50 [41]: 86.2 nM
TGI [41]: > 50 µM
GI50 [42]: 403 nM
TGI [42]: > 50 µM
GI50 [43]: 148 nM
TGI [43]: > 50 µM
GI50 [44]: 89.5 nM
TGI [44]: 1180 nM
GI50 [45]: 367 nM
TGI [45]: 2840 nM
GI50 [46]: 337 nM
TGI [46]: > 50 µM
GI50 [47]: 641 nM
TGI [47]: > 50 µM
GI50 [48]: 167 nM
TGI [48]: 721 nM
GI50 [49]: 889 nM
TGI [49]: 8.26 µM
GI50 [50]: 480 nM
TGI [50]: > 50 µM
GI50 [51]: 224 nM
TGI [51]: 2930 nM
GI50 [52]: 417 nM
TGI [52]: > 50 µM
GI50 [53]: 443 nM
TGI [53]: > 50 µM
GI50 [54]: 483 nM
TGI [54]: 1900 nM
GI50 [55]: 290 nM
TGI [55]: > 50 µM
GI50 [56]: 583 nM
TGI [56]: 1320 nM
GI50 [57]: 185 nM
TGI [57]: 1440 nM
